Test results: paper PMC6572064, “Discovery of 2-(1-(3-(4-Chloroxyphenyl)-3-oxo- propyl)pyrrolidine-3-yl)-1H-benzo[d]imidazole-4-carboxamide: A Potent Poly(ADP-ribose) Polymerase (PARP) Inhibitor for Treatment of Cancer” (Molecules, 2019)
Read-outs that look alike come from different tables or passages of the source.

Key:
[1] = molecular target: T1, PARP-1 (Homo sapiens, UniProt P09874); test: PARP-1 inhibition assay (PARP-1 Chemiluminescent Assay Kit, BPS Bioscience); format: biochemical; conditions: for inhibition at 0.01 µM: 10 nM compound
T1 construct: purchased BPS Bioscience 80569
T1 sequence (P09874 whole entry): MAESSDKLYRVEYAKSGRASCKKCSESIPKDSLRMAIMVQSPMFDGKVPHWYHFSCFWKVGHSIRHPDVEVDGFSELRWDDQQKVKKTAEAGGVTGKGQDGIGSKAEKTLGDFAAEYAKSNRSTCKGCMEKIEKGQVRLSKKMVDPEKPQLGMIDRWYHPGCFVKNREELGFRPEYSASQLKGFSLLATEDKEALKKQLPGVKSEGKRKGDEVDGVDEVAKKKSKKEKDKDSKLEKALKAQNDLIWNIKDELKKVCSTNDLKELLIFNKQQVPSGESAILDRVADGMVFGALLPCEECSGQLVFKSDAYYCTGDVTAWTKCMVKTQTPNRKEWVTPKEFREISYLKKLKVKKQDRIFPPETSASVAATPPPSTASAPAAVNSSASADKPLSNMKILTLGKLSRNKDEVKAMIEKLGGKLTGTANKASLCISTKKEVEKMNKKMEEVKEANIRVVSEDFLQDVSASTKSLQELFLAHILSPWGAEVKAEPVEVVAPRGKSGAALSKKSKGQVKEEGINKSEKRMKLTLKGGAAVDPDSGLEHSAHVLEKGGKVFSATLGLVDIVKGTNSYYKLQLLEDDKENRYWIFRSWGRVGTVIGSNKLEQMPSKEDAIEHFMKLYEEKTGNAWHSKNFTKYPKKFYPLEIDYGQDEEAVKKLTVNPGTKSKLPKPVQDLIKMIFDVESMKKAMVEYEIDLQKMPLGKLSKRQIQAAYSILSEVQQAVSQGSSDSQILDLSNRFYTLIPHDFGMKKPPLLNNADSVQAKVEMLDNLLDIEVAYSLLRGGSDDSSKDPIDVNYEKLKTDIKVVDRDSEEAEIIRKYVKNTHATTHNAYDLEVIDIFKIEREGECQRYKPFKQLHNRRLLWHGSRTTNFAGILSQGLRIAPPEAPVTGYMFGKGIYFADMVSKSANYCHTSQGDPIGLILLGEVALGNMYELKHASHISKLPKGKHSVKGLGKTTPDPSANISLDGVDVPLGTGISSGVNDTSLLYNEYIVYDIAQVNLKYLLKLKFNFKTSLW
Protocol: (§1) The PARP-1 and PARP-2 inhibition assays were performed in outsourcing, by a CRO company, Shanghai Medicilon Inc. (Shanghai, China). […] Briefly, PARP-1 or PARP-2 biotinylated substrate was incubated with compounds or solvent control at varying concentrations and an assay buffer containing the PARP-1 or PARP-2 enzyme.

[2] = molecular target: T2, PARP-2 (Homo sapiens, UniProt Q9UGN5); test: PARP-2 inhibition assay (PARP-2 Chemiluminescent Assay Kit, BPS Bioscience); format: biochemical; conditions: for inhibition at 0.01 µM: 10 nM compound
T2 construct: purchased BPS Bioscience 80552
T2 sequence (Q9UGN5 whole entry): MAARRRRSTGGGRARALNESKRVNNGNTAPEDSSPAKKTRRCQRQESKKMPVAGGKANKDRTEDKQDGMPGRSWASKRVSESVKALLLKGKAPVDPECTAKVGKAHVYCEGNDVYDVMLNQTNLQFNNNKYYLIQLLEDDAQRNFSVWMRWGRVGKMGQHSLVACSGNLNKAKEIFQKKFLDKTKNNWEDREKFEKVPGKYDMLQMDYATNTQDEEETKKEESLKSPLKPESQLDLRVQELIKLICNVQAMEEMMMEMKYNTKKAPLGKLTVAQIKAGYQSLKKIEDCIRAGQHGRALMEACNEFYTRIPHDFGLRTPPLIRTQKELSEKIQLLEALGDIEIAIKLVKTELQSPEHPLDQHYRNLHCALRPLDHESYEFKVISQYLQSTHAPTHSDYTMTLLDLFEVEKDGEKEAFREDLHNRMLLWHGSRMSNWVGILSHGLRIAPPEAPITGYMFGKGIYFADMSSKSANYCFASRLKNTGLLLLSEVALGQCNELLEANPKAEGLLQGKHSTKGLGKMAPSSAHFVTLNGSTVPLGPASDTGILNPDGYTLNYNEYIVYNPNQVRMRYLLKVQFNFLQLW
Protocol: as §1

[3] = tested on: MDA-MB-436 (a BRCA-1-mutated breast cancer cell line); test: Cell proliferation assay, three-day, CellTiter-Glo, MDA-MB-436; format: cell-based; conditions: Homo sapiens; for inhibition at 0.00508 µM: MDA-MB-436, MDA-MB-436, Conc. 0.00508 uM; for inhibition at 0.0152 µM: MDA-MB-436, MDA-MB-436, Conc. 0.0152 uM; for inhibition at 0.0457 µM: MDA-MB-436, MDA-MB-436, Conc. 0.0457 uM; for inhibition at 0.41 µM: MDA-MB-436, MDA-MB-436, Conc. 0.41 uM; for inhibition at 1.23 µM: MDA-MB-436, MDA-MB-436, Conc. 1.23 uM; for inhibition at 3.7 µM: MDA-MB-436, MDA-MB-436, Conc. 3.70 uM; for inhibition at 11.11 µM: MDA-MB-436, MDA-MB-436, Conc. 11.11 uM; for inhibition at 33.33 µM: MDA-MB-436, MDA-MB-436, Conc. 33.33 uM; for inhibition at 100 µM: MDA-MB-436, MDA-MB-436, Conc. 100.00 uM; for IC50: MDA-MB-436, 72 h, CellTiter-Glo, read-out: MDA-MB-436 IC50
Procedure, shortened: (§2)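 Luminescent ATP read-out (CellTiter-Glo, 60 min at room temperature) quantified viability after a 72 h compound exposure at 37 °C, 5% CO2. Compounds, diluted from DMSO stocks into growth medium, were added to cells plated the previous day.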

[4] = tested on: CAPAN-1 (a BRCA-2-mutated pancreatic cancer cell line); test: Cell proliferation assay, three-day, CellTiter-Glo, CAPAN-1; format: cell-based; conditions: for IC50 / inhibition at 0.00508 µM / inhibition at 0.0152 µM / inhibition at 0.0457 µM / inhibition at […] / inhibition at 0.41 µM / inhibition at 1.23 µM / inhibition at 3.7 µM / inhibition at 11.11 µM / inhibition at 33.33 µM / inhibition at 100 µM: Homo sapiens; for IC50: CAPAN-1, 72 h, CellTiter-Glo, read-out: CAPAN-1 IC50; for inhibition at 0.0457 µM: CAPAN-1, 0.0457 uM; for inhibition at […]: CAPAN-1, 0.14 uM; for inhibition at 0.41 µM: CAPAN-1, 0.41 uM; for inhibition at 1.23 µM: CAPAN-1, 1.23 uM; for inhibition at 3.7 µM: CAPAN-1, 3.70 uM; for inhibition at 11.11 µM: CAPAN-1, 11.11 uM; for inhibition at 33.33 µM: CAPAN-1, 33.33 uM; for inhibition at 100 µM: CAPAN-1, 100.00 uM
Procedure, shortened: as §2

[5] = supplement sheet, read-out: 10 nM inhibition% PAPR-1
[6] = read-out: PARP-1 Inhibition % (10 nM)
[7] = supplement sheet, read-out: 10 nM inhibition% PAPR-2
[8] = read-out: PARP-2 Inhibition % (10 nM)

NC(=O)c1cccc2[nH]c(C3CCN(CCCNc4ccccc4)C3)nc12 (stereo not drawn) [Compound 5ch, 2-(1-(3-(Phenylamino)propyl)pyrrolidin-3-yl)-1H-benzo[d]imidazole-4-carboxamide]
inhibition at 0.01 µM [1, 5]: 47.5% | inhibition at 0.01 µM [1, 6]: 47.5% | IC50 ([1]; read-out: PARP-1 IC50): 7.1 nM | IC50 ([1]; supplement sheet, read-out: IC50 PAPR-1): 7.14 nM | inhibition at 0.01 µM [2, 7]: 66.2% | inhibition at 0.01 µM [2, 8]: 66.2% | IC50 ([2]; read-out: PARP-2 IC50): 3.3 nM | IC50 ([2]; supplement sheet, read-out: IC50 PAPR-2): 3.33 nM | inhibition at 0.00508 µM ([3]; replicate 1, read-out: Inh % 1): -7% | inhibition at 0.00508 µM ([3]; replicate 2, read-out: Inh % 2): -8.2% | inhibition at 0.0152 µM ([3]; replicate 1, read-out: Inh % 1): -3% | inhibition at 0.0152 µM ([3]; replicate 2, read-out: Inh % 2): -8% | inhibition at 0.0457 µM ([3]; replicate 1, read-out: Inh % 1): -14.2% | inhibition at 0.0457 µM ([3]; replicate 2, read-out: Inh % 2): -14.8% | inhibition at 0.41 µM ([3]; replicate 1, read-out: Inh % 1): -13.7% | inhibition at 0.41 µM ([3]; replicate 2, read-out: Inh % 2): -16% | inhibition at 1.23 µM ([3]; replicate 1, read-out: Inh % 1): -13.7% | inhibition at 1.23 µM ([3]; replicate 2, read-out: Inh % 2): -10.6% | inhibition at 3.7 µM ([3]; replicate 1, read-out: Inh % 1): -16.2% | inhibition at 3.7 µM ([3]; replicate 2, read-out: Inh % 2): -4.5% | inhibition at 11.11 µM ([3]; replicate 1, read-out: Inh % 1): -9.3% | inhibition at 11.11 µM ([3]; replicate 2, read-out: Inh % 2): -8.6% | inhibition at 33.33 µM ([3]; replicate 1, read-out: Inh % 1): 3.2% | inhibition at 33.33 µM ([3]; replicate 2, read-out: Inh % 2): -1.4% | inhibition at 100 µM ([3]; replicate 1, read-out: Inh % 1): 39.9% | inhibition at 100 µM ([3]; replicate 2, read-out: Inh % 2): 37.2% | IC50 [3]: > 100000 nM | LogIC50 ([4]; CAPAN-1, curve-fit output, Log (uM)): 2.153 | IC50 [4]: > 100000 nM | inhibition at 0.00508 µM ([4]; CAPAN-1, 0.00508 uM, replicate 1, read-out: Inh % 1): 2.8% | inhibition at 0.00508 µM ([4]; CAPAN-1, 0.00508 uM, replicate 2, read-out: Inh % 2): -6.9% | inhibition at 0.0152 µM ([4]; CAPAN-1, 0.0152 uM, replicate 1, read-out: Inh % 1): 3.5% | inhibition at 0.0152 µM ([4]; CAPAN-1, 0.0152 uM, replicate 2, read-out: Inh % 2): 0.5% | inhibition at 0.0457 µM ([4]; replicate 1, read-out: Inh % 1): 5% | inhibition at 0.0457 µM ([4]; replicate 2, read-out: Inh % 2): 0.2% | inhibition at […] ([4]; replicate 1, read-out: Inh % 1): -1.8% | inhibition at […] ([4]; replicate 2, read-out: Inh % 2): -3% | inhibition at 0.41 µM ([4]; replicate 1, read-out: Inh % 1): 6.4% | inhibition at 0.41 µM ([4]; replicate 2, read-out: Inh % 2): 6.3% | inhibition at 1.23 µM ([4]; replicate 1, read-out: Inh % 1): -2.4% | inhibition at 1.23 µM ([4]; replicate 2, read-out: Inh % 2): -3.6% | inhibition at 3.7 µM ([4]; replicate 1, read-out: Inh % 1): 7.7% | inhibition at 3.7 µM ([4]; replicate 2, read-out: Inh % 2): 10.2% | inhibition at 11.11 µM ([4]; replicate 1, read-out: Inh % 1): 2.2% | inhibition at 11.11 µM ([4]; replicate 2, read-out: Inh % 2): 3% | inhibition at 33.33 µM ([4]; replicate 1, read-out: Inh % 1): 29.9% | inhibition at 33.33 µM ([4]; replicate 2, read-out: Inh % 2): 20.6% | inhibition at 100 µM ([4]; replicate 1, read-out: Inh % 1): 46.6% | inhibition at 100 µM ([4]; replicate 2, read-out: Inh % 2): 35.5%

NC(=O)c1cccc2[nH]c(C3CCN(CCN4C(=O)c5ccccc5C4=O)C3)nc12 (stereo not drawn) [Compound 5ck, 2-(1-(2-(1,3-Dioxoisoindolin-2-yl)ethyl)pyrrolidin-3-yl)-1H-benzo[d]imidazole-4-carboxamide]
inhibition at 0.01 µM [1, 5]: 6.02% | inhibition at 0.01 µM [1, 6]: 6% | inhibition at 0.01 µM [2, 7]: 37.1% | inhibition at 0.01 µM [2, 8]: 37.1% | inhibition at 0.00508 µM ([3]; replicate 1, read-out: Inh % 1): -0.108% | inhibition at 0.00508 µM ([3]; replicate 2, read-out: Inh % 2): -3.8% | inhibition at 0.0152 µM ([3]; replicate 1, read-out: Inh % 1): -3.1% | inhibition at 0.0152 µM ([3]; replicate 2, read-out: Inh % 2): -1.8% | inhibition at 0.0457 µM ([3]; replicate 1, read-out: Inh % 1): -9.3% | inhibition at 0.0457 µM ([3]; replicate 2, read-out: Inh % 2): -11.9% | inhibition at 0.41 µM ([3]; replicate 1, read-out: Inh % 1): -11% | inhibition at 0.41 µM ([3]; replicate 2, read-out: Inh % 2): -21.7% | inhibition at 1.23 µM ([3]; replicate 1, read-out: Inh % 1): -18.8% | inhibition at 1.23 µM ([3]; replicate 2, read-out: Inh % 2): -14.6% | inhibition at 3.7 µM ([3]; replicate 1, read-out: Inh % 1): -15.1% | inhibition at 3.7 µM ([3]; replicate 2, read-out: Inh % 2): -12.2% | inhibition at 11.11 µM ([3]; replicate 1, read-out: Inh % 1): -14.1% | inhibition at 11.11 µM ([3]; replicate 2, read-out: Inh % 2): -10% | inhibition at 33.33 µM ([3]; replicate 1, read-out: Inh % 1): -6.4% | inhibition at 33.33 µM ([3]; replicate 2, read-out: Inh % 2): -12% | inhibition at 100 µM ([3]; replicate 1, read-out: Inh % 1): -8.9% | inhibition at 100 µM ([3]; replicate 2, read-out: Inh % 2): -13.6% | IC50 [3]: > 100000 nM | IC50 [4]: > 100000 nM | inhibition at 0.0457 µM ([4]; replicate 1, read-out: Inh % 1): -1.5% | inhibition at 0.0457 µM ([4]; replicate 2, read-out: Inh % 2): -9.2% | inhibition at […] ([4]; replicate 1, read-out: Inh % 1): 8.7% | inhibition at […] ([4]; replicate 2, read-out: Inh % 2): -3.2% | inhibition at 0.41 µM ([4]; replicate 1, read-out: Inh % 1): 9% | inhibition at 0.41 µM ([4]; replicate 2, read-out: Inh % 2): -5.8% | inhibition at 1.23 µM ([4]; replicate 1, read-out: Inh % 1): 3.9% | inhibition at 1.23 µM ([4]; replicate 2, read-out: Inh % 2): -9.8% | inhibition at 3.7 µM ([4]; replicate 1, read-out: Inh % 1): 1.2% | inhibition at 3.7 µM ([4]; replicate 2, read-out: Inh % 2): 2.6% | inhibition at 11.11 µM ([4]; replicate 1, read-out: Inh % 1): -2.3% | inhibition at 11.11 µM ([4]; replicate 2, read-out: Inh % 2): -4.3% | inhibition at 33.33 µM ([4]; replicate 1, read-out: Inh % 1): 6.8% | inhibition at 33.33 µM ([4]; replicate 2, read-out: Inh % 2): 4.4% | inhibition at 100 µM ([4]; replicate 1, read-out: Inh % 1): -2.5% | inhibition at 100 µM ([4]; replicate 2, read-out: Inh % 2): -5.6% | inhibition at 0.00508 µM ([4]; CAPAN-1, Conc. 0.00508 uM, replicate 1, read-out: Inh % 1): 2.6% | inhibition at 0.00508 µM ([4]; CAPAN-1, Conc. 0.00508 uM, replicate 2, read-out: Inh % 2): 0.639% | inhibition at 0.0152 µM ([4]; CAPAN-1, Conc. 0.0152 uM, replicate 1, read-out: Inh % 1): 6.1% | inhibition at 0.0152 µM ([4]; CAPAN-1, Conc. 0.0152 uM, replicate 2, read-out: Inh % 2): -0.5%
